We go through 1 compound from patent US20160291027A1, “METHODS FOR […] ABILITY OF A Z[…] COMPOUND TO TREAT CANCER” (Eisai R&D Management Co., Ltd., priority 2007, published 2016).

Assay [1] deals with BRAF mutant (V600E) melanoma cell lines. The assay is described as follows: Cell growth assay in BRAF mutant (V600E) melanoma cell lines. As to conditions: continuous presence of compound. The class given is cell-based. The protocol: In a separate experiment, Compound 106 was tested in a panel of BRAF mutant (V600E) melanoma cell lines. (This set of cell lines represents 17 additional cell lines relative to FIG. 3C.) The melanoma cell lines were introduced into 96-well plates and grown in the absence or continuous presence of compound 106. IC50 values were determined as the concentration of a substance which inhibits cell growth by 50% compared to untreated cell populations.

The next assay has as its system RPMI-7951. Put plainly: CellTiter-Glo cell growth assay. The class given is cell-based. As to conditions: RPMI-7951, BRAF mutated melanoma, elevated pAKT; 10 μmol/L to 0.0003 μmol/L. The protocol: In order to determine whether Compound 106 resistance is associated with constitutive AKT phosphorylation as a result of activation of the PI3K signaling pathway, a panel of 10 BRAF mutated melanoma cell lines and a BRAF wild-type glioblastoma cancer cell line, SF-295, were tested using different concentrations of Compound 106 ranging from 10 μmol/L to 0.0003 μmol/L.
All assays were performed in a 96 well format. For these cell lines, protein lysates were collected in a separate experiment, which allowed for the evaluation of the constitutive level of AKT phosphorylation and correlation between the level of phosphorylated AKT (pAKT) and Compound 106 sensitivity. Cell growth was assessed using CellTiter-Glo® Luminescent Cell Viability Assay (Promega). Phosphorylated AKT protein was analyzed by Western blotting, with total AKT being used as a loading control.
For orientation: ATP-based viability assays read luminescence as a measure of living cells.

In assay [2] the test system is BRAF-mutated xenograft models (breast, colon, and melanoma cell lines). Put plainly: Other xenograft models, BRAF-mutated. The class given is in vivo, mice. As to conditions: 40 mg/kg i.v. QD×5 for 2 weeks. The protocol:
(§1) Additionally, one, five, and seven out of eight animals in the groups treated with Compound 106 at doses of 10, 20, or 40 mg/kg, respectively, were tumor-free at the end of the study on day 59. […] Compound 106 was also tested in other xenograft models, in which BRAF-mutated cells, including breast, colon, and melanoma cell lines, or wildtype cells, including pancreatic cell lines, were transplanted subcutaneously into female nude mice. Compound 106 or a vehicle control was administered intravenously.

Assay [3] deals with wildtype xenograft models (pancreatic cell lines). Put plainly: Other xenograft models, wildtype. The class given is in vivo, mice. To be noted: 40 mg/kg i.v. QD×5 for 2 weeks. The protocol:
as §1

On to `CCNc1cc(O)c2c(c1)/C=C/C[C@H](O)[C@H](O)C(=O)/C=C\[C@@H](C)[C@H](C)OC2=O` [Compound 106], for which the “Sensitivity of cell lines with BRAF mutation and wild-type PTEN status” value in assay [1] is “very sensitive”. Besides, the “Sensitivity of cell line” value in the assay with RPMI-7951 is “resistant”. Further, the values for the tumor regression entry in assay [2] (strongest effect of the range) and in assay [3] were “about 73%” and 30-40%, respectively. For the same compound, the tumor growth inhibition in assay [2] (weakest effect of the range: tumor stasis (but not regression) during treatment) was > 80%.
